For 21 compounds, Ki, IC50 and melting point results are on record in patent US8372823B2, “Tetracyclic inhibitors of fatty acid amide hydrolase” (The Scripps Research Institute, priority 2007, dated 2013).

Each structure is given as a SMILES string.

Data set [1] concerns the target T1, FAAH (Homo sapiens, UniProt O00519).
T1 sequence (O00519 1-579): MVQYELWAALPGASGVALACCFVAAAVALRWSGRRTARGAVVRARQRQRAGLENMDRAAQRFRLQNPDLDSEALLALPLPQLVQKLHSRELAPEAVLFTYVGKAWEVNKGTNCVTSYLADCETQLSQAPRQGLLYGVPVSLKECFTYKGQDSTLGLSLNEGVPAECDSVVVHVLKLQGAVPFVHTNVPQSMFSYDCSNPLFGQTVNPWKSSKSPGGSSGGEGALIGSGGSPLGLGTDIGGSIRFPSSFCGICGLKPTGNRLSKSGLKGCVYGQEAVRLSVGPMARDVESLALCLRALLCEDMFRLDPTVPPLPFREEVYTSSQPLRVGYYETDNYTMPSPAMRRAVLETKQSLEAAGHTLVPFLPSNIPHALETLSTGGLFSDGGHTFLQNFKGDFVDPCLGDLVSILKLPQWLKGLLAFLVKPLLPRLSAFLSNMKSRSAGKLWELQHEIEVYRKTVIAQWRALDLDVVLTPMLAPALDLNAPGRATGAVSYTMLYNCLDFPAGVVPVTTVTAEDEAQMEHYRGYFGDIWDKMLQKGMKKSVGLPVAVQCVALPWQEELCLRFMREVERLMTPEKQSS
The data set is described as follows: FAAH enzyme assay, Ki (Dixon plot), human FAAH. Also on record: expressed in transfected cells; host or cells: COS-7 (transient transfection), solubilized membrane extracts. The following applies: solubilized COS-7 membrane extracts, human FAAH cDNA; 14C-oleamide hydrolysis; pH 9.0; 20-23° C. Format: biochemical.

Data set [2] has as its target T2, purified recombinant rat FAAH (Rattus norvegicus, UniProt P97612).
T2 construct: made in house; host or cells: E. coli
T2 sequence (P97612 1-579): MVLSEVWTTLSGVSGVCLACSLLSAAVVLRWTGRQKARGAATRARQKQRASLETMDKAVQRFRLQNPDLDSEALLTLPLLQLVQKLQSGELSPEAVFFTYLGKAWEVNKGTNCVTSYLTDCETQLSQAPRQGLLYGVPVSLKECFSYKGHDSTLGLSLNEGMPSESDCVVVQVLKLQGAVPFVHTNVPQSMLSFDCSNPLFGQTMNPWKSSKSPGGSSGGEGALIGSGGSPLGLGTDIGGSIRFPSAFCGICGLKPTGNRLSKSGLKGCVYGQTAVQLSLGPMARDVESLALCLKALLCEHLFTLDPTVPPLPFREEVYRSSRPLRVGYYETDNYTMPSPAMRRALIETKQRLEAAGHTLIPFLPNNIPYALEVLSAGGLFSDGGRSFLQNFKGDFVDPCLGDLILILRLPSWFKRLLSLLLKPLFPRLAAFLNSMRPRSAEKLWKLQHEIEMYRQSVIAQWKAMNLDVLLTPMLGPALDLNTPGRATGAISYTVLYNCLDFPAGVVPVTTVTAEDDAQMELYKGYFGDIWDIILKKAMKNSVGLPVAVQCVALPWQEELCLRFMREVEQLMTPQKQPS
The data set can be described thus: FAAH enzyme assay, Ki (Dixon plot), rat FAAH. The settings on record: purified recombinant rat FAAH expressed in E. coli; 14C-oleamide hydrolysis; pH 9.0; 20-23° C. The class given is biochemical.

Data set [3] deals with T1, FAAH. The data set is described as follows: FAAH inhibition IC50, human. Format: biochemical. Also on record: expressed in transfected cells; host or cells: COS-7 (transient transfection), solubilized membrane extracts. The settings on record: inhibition at 3-5 test compound concentrations. The procedure: (§1) Enzyme assays were performed at 20-23° C. with purified recombinant rat FAAH expressed in E. coli (Patricelli, M. P.; Lashuel, H. A.; et al. Biochemistry 1998, 37, 15177-15187) (unless indicated otherwise) or with solubilized COS-7 membrane extracts from cells transiently transfected with human FAAH cDNA (Giang, D. K.; Cravatt, B. F. Proc. Natl. Acad. Sci. U.S.A. 1997, 94, 2238-2242) (where specifically indicated) in a buffer of 125 mM Tris/1 mM EDTA/0.2% glycerol/0.02% Triton X-100/0.4 mM Hepes, pH 9.0 buffer (Patricelli, M. P.; Patterson, J. P.; et al. Bioorg. Med. Chem. Lett. 1998, 8, 613-618). […] NT=no data available.
(§2) IC50 values were determined from the inhibition observed at 3-5 different test compound concentrations (from three or more trials at each concentration) using the formula IC50=[I]/[K0/Ki)-1], where K0 is the control reaction rate without inhibitor and Ki is the rate with test compound at concentration [I] (Conde-Frieboes, K. et al. J. Am. Chem. Soc. 1996, 118, 5519-5525). NT=no data available.

Another data set addresses T3, rat FAAH (Rattus norvegicus, UniProt P97612).
T3 construct: made in house; host or cells: E. coli
T3 sequence (P97612 1-579): T2 sequence (P97612 1-579)
The data set can be described thus: FAAH inhibition IC50, rat. The settings on record: inhibition at 3-5 test compound concentrations. Format: biochemical. The procedure:
as §1, §2

Usually Ki stands for the equilibrium dissociation constant of an inhibitor or competing ligand from its target. Take `O=C(CCc1ccc(OCc2ccccc2)cc1)c1nc2ncccc2o1` [Example 11k, 3-(4-(Benzyloxy)phenyl)-1-(oxazolo[4,5-b]pyridin-2-yl)propan-1-one]: the Ki was 0.6 nM on FAAH [1] and 0.38 nM in data set [2].

As a reminder, the IC50 is the midpoint of a concentration-inhibition curve. A low value points to higher potency. As to `O=C(CCc1ccc(-c2ccccc2)cc1)c1ncc(-c2cccc(-c3nnn[nH]3)n2)o1` [Example 46, 3-Biphenyl-4-yl-1-{5-[6-(1H-tetrazol-5-yl)-pyridin-2-yl]-oxazol-2-yl}-propan-1-one], the figures for the IC50 against FAAH [3] and against rat FAAH were 83 nM and 9 nM, respectively. Moreover, the Ki in data set [2] worked out at 27 nM.

Regarding `O=C(O)c1ccc(-c2cnc(C(=O)CCc3ccc(-c4ccccc4)cc3)o2)cn1` [Example 33, 5-[2-(3-Biphenyl-4-yl-propionyl)-oxazol-5-yl]-pyridine-2-carboxylic acid], the IC50 at FAAH [3] came out at 580 nM; against rat FAAH it was 44 nM. Moreover, in data set [2], the Ki was determined as 44 nM.

Turning to `NC(=O)c1ccc(-c2cnc(C(=O)CCc3ccc(-c4ccccc4)cc3)o2)nc1` [Example 27, 6-[2-(3-Biphenyl-4-yl-propionyl)-oxazol-5-yl]-nicotinamide], the IC50 at FAAH [3] worked out at 0.4 nM; against rat FAAH it was 0.5 nM. In addition, the Ki in data set [2] amounted to 1.5 nM.

In the case of `COC(=O)c1cccc(-c2cnc(C(=O)CCc3ccc(-c4ccc(CN5CCOCC5)cc4)cc3)o2)n1` [Example 35, 6-{2-[3-(4′-Morpholin-4-ylmethyl-biphenyl-4-yl)-propionyl]-oxazol-5-yl}-pyridine-2-carboxylic acid methyl ester], the values for the IC50 at FAAH [3] and at rat FAAH were 21 nM and 2 nM, respectively. For the same compound, in data set [2], the Ki was found to be 31 nM.

For `O=C(CCc1ccc(-c2ccccc2)cc1)c1ncc(-c2ccncc2)o1` [Example 30, 3-Biphenyl-4-yl-1-(5-pyridin-4-yl-oxazol-2-yl)-propan-1-one], the values for the IC50 against FAAH [3] and against rat FAAH were 16 nM and 3 nM, respectively. In addition, the inhibition constant Ki in data set [2] is 2.3 nM.

As for `NC(=O)c1cccc(-c2cnc(C(=O)CCc3ccc(-c4ccccc4)cc3)o2)n1` [Example 26, 6-[2-(3-Biphenyl-4-yl-propionyl)-oxazol-5-yl]-pyridine-2-carboxylic acid amide], the IC50 against FAAH [3] was determined as 2 nM; at rat FAAH, 0.5 nM. The Ki in data set [2] is 1.2 nM.

With `O=C(O)c1cccc(-c2cnc(C(=O)CCc3ccc(-c4ccccc4)cc3)o2)n1` [Example 24, 6-[2-(3-Biphenyl-4-yl-propionyl)-oxazol-5-yl]-pyridine-2-carboxylic acid], the IC50 on FAAH [3] is 2 nM; against rat FAAH, 0.6 nM. In addition, the Ki in data set [2] is 22 nM.

`COC(=O)c1ccc(-c2cnc(C(=O)CCc3ccc(-c4ccccc4)cc3)o2)nc1` [Example 23, 6-[2-(3-Biphenyl-4-yl-propionyl)-oxazol-5-yl]-nicotinic acid methyl ester]: the IC50 at FAAH [3] was 5 nM; at rat FAAH it was 8 nM. Besides, the Ki in data set [2] worked out at 2.2 nM.

For the compound `O=C(O)c1cccc(-c2cnc(C(=O)CCc3ccc(-c4ccc(CN5CCOCC5)cc4)cc3)o2)n1` [Example 41, 6-{2-[3-(4′-Morpholin-4-ylmethyl-biphenyl-4-yl)-propionyl]-oxazol-5-yl}-pyridine-2-carboxylic acid], the IC50 against FAAH [3] was found to be 9 nM; at rat FAAH, 3 nM. In data set [2], the Ki is 150 nM.

For the compound `O=C(O)c1cccc(-c2cnc(C(=O)CCc3ccc(COc4ccccc4)cc3)o2)n1` [Example 18, 6-{2-[3-(4-Phenoxymethyl-phenyl)-propionyl]-oxazol-5-yl}-pyridine-2-carboxylic acid], the values for the IC50 at FAAH [3] and at rat FAAH were 1 nM and 0.5 nM, respectively. In addition, in data set [2], the Ki was 6.1 nM.

In the case of `N#Cc1cccc(-c2cnc(C(=O)CCc3ccc(-c4ccccc4)cc3)o2)n1` [Example 20, 6-[2-(3-Biphenyl-4-yl-propionyl)-oxazol-5-yl]-pyridine-2-carbonitrile], the IC50 at FAAH [3] was 11 nM; on rat FAAH, 2 nM. For the same compound, the Ki in data set [2] worked out at 3 nM.

On to `COC(=O)c1cccc(-c2cnc(C(=O)CCc3ccc(COc4ccccc4)cc3)o2)n1` [Example 16, 6-{2-[3-(4-Phenoxymethyl-phenyl)-propionyl]-oxazol-5-yl}-pyridine-2-carboxylic acid methyl ester], for which the IC50 at FAAH [3] came to 1.2 nM; at rat FAAH, 1 nM. Besides, the Ki in data set [2] was 2 nM.

As to `O=C(O)c1ccc(-c2cnc(C(=O)CCc3ccc(COc4ccccc4)cc3)o2)nc1` [Example 19, 6-{2-[3-(4-Phenoxymethyl-phenyl)-propionyl]-oxazol-5-yl}-nicotinic acid], the IC50 against FAAH [3] amounted to 0.8 nM; on rat FAAH it was 2.5 nM. Further, the Ki in data set [2] was 4.6 nM.

`COC(=O)c1ccc(-c2cnc(C(=O)CCc3ccc(COc4ccccc4)cc3)o2)nc1` [Example 17]: the figures for the IC50 on FAAH [3] and against rat FAAH were 0.8 nM and 2.5 nM, respectively. Besides, the Ki in data set [2] was determined as 3.5 nM.

Broadly, the melting point is the temperature of the solid-liquid transition. `O=C(CCc1ccc(OCc2ccccc2)cc1)c1ncc(-c2ccccn2)o1` [Example 11a, 1-Oxo-1-[5-(2-pyridyl)oxazol-2-yl]-3-(4-(benzyloxy)phenyl)propane] gave a melting point of 99 to 100 °C. On FAAH [1], this compound returned a Ki of 0.45 nM. For the same compound, the Ki in data set [2] was 1.3 nM.

Turning to `O=C(CCc1ccc(COc2ccccc2)cc1)c1ncc(-c2ccccn2)o1` [Example 11e, 3-(4-(Phenoxymethyl)phenyl)-1-(5-(pyridin-2-yl)oxazol-2-yl)propan-1-one], the figures for the Ki (on FAAH [1]; in data set [2]) were 5 nM and 1 nM, respectively.

Take `COC(=O)c1cc(-c2cnc(C(=O)CCc3ccc(-c4ccccc4)cc3)o2)ccn1` [Example 28, 4-[2-(3-Biphenyl-4-yl-propionyl)-oxazol-5-yl]-pyridine-2-carboxylic acid methyl ester]: the IC50 is 29 nM on FAAH [3] and 1.5 nM against rat FAAH. Also, the Ki in data set [2] amounted to 1.6 nM.

Consider `CCOC(=O)c1cccc(-c2cnc(C(=O)CCc3ccc(-c4ccccc4)cc3)o2)n1` [Example 22, 6-[2-(3-Biphenyl-4-yl-propionyl)-oxazol-5-yl]-pyridine-2-carboxylic acid ethyl ester], for which the IC50 against FAAH [3] and against rat FAAH was 2 nM each time. The Ki in data set [2] stood at 3 nM.

As for `COC(=O)c1ccc(-c2cnc(C(=O)CCc3ccc(Oc4ccccc4)cc3)o2)nc1` [Example 13, 6-{2-[3-(4-Phenoxy-phenyl)-propionyl]-oxazol-5-yl}-nicotinic acid methyl ester], the figures for the IC50 at FAAH [3] and against rat FAAH were 3 nM and 6 nM, respectively. Besides, in data set [2], the Ki was found to be 54 nM.

With `COC(=O)c1cccc(-c2cnc(C(=O)CCc3ccc(-c4ccccc4)cc3)o2)n1` [Example 21, 6-[2-(3-Biphenyl-4-yl-propionyl)-oxazol-5-yl]-pyridine-2-carboxylic acid methyl ester], the IC50 came out at 3 nM against FAAH [3] and 0.5 nM at rat FAAH. Also, the Ki (on FAAH [1]; in data set [2]) was 1.2 nM throughout.
